ChEMBL document CHEMBL3885861, “Open TG-GATES”

Species on record: Rattus norvegicus
Assay: Open TG-GATES - Regimen: Single
Assay type: toxicity, organism-based, Sprague-Dawley
Parameters: regimen Single, gender Male, age 6 weeks
Conditions: in vivo, po, 2000 mg/kg, route gavage, dose level High; for APTT / Bas / Eos / Fbg / Hb / Ht / Lym / MCH / MCHC / MCV / Mono / Neu / PT / Plat / RBC / Ret / WBC: tissue Blood; for KIDNEY_L / KIDNEY_R / KIDNEY_TOTAL: tissue Kidney; for LIVER: tissue Liver; for A/G / ALP / ALT / AST / BUN / CRE / Ca / Cl / DBIL / GLC / IP / K / LDH / Na / PL / RALB / TBIL / TC / TG / TP / gamma-GTP: tissue Plasma

Clc1c(Cl)c(Cl)c(Cl)c(Cl)c1Cl [PERCHLOROBENZENE]
TERMINAL_BW (3 h): 219.3 g
APTT (3 h): 19.9 s
Bas (3 h): 0.4%
Eos (3 h): 1%
Fbg (3 h): 223.4 mg/dL
Hb (3 h): 13.8 g/dL
Ht (3 h): 38.5%
Lym (3 h): 76.4%
MCH (3 h): 22.1 pg
MCHC (3 h): 35.7%
MCV (3 h): 62 fL
Mono (3 h): 2.2%
Neu (3 h): 19.2%
PT (3 h): 12 s
Plat (3 h): 128.8 x10_4/uL
RBC (3 h): 621.4 x10_4/ul
Ret (3 h): 7.4%
WBC (3 h): 104.4 x10_2/uL
KIDNEY_L (3 h): 1 g
KIDNEY_R (3 h): 1 g
KIDNEY_TOTAL (3 h): 2 g
LIVER (3 h): 10.1 g
A/G (3 h): 1.6
ALP (3 h): 1055.8 IU/L
ALT (3 h): 37.2 IU/L
AST (3 h): 76.8 IU/L
BUN (3 h): 10.8 mg/dL
CRE (3 h): 0.4 mg/dL
Ca (3 h): 11 mg/dL
Cl (3 h): 103 meq/L
DBIL (3 h): 0.062 mg/dL
GLC (3 h): 192.6 mg/dL
IP (3 h): 9.3 mg/dL
K (3 h): 3.8 meq/L
LDH (3 h): 231.2 IU/L
Na (3 h): 141.4 meq/L
PL (3 h): 151 mg/dL
RALB (3 h): 3.4 g/dL
TBIL (3 h): 0.1 mg/dL
TC (3 h): 74.6 mg/dL
TG (3 h): 132 mg/dL
TP (3 h): 5.6 g/dL
gamma-GTP (3 h): 1.2 IU/L
TERMINAL_BW (6 h): 215.7 g
APTT (6 h): 19.3 s
Bas (6 h): 0.2%
Eos (6 h): 1%
Fbg (6 h): 239.6 mg/dL
Hb (6 h): 13.6 g/dL
Ht (6 h): 39.1%
Lym (6 h): 74%
MCH (6 h): 21.2 pg
MCHC (6 h): 34.6%
MCV (6 h): 61 fL
Mono (6 h): 2.6%
Neu (6 h): 20.8%
PT (6 h): 12 s
Plat (6 h): 134.1 x10_4/uL
RBC (6 h): 641.6 x10_4/ul
Ret (6 h): 7.1%
WBC (6 h): 105.2 x10_2/uL
KIDNEY_L (6 h): 0.9 g
KIDNEY_R (6 h): 0.9 g
KIDNEY_TOTAL (6 h): 1.8 g
LIVER (6 h): 9 g
A/G (6 h): 1.8
ALP (6 h): 1089.2 IU/L
ALT (6 h): 34 IU/L
AST (6 h): 77.2 IU/L
BUN (6 h): 9.4 mg/dL
CRE (6 h): 0.4 mg/dL
Ca (6 h): 10.6 mg/dL
Cl (6 h): 102.8 meq/L
DBIL (6 h): 0.072 mg/dL
GLC (6 h): 196.2 mg/dL
IP (6 h): 9.3 mg/dL
K (6 h): 3.9 meq/L
LDH (6 h): 219 IU/L
Na (6 h): 141.2 meq/L
PL (6 h): 132.6 mg/dL
RALB (6 h): 3.5 g/dL
TBIL (6 h): 0.1 mg/dL
TC (6 h): 73.8 mg/dL
TG (6 h): 55 mg/dL
TP (6 h): 5.5 g/dL
gamma-GTP (6 h): 1 IU/L
TERMINAL_BW (9 h): 214.9 g
APTT (9 h): 17.8 s
Bas (9 h): 0%
Eos (9 h): 1%
Fbg (9 h): 224.6 mg/dL
Hb (9 h): 13.5 g/dL
Ht (9 h): 38.5%
Lym (9 h): 74.2%
MCH (9 h): 21.5 pg
MCHC (9 h): 35.1%
MCV (9 h): 61.4 fL
Mono (9 h): 2.2%
Neu (9 h): 21%
PT (9 h): 12 s
Plat (9 h): 126.2 x10_4/uL
RBC (9 h): 626.2 x10_4/ul
Ret (9 h): 7.3%
WBC (9 h): 92.9 x10_2/uL
KIDNEY_L (9 h): 1 g
KIDNEY_R (9 h): 1 g
KIDNEY_TOTAL (9 h): 1.9 g
LIVER (9 h): 9 g
A/G (9 h): 1.7
ALP (9 h): 944.6 IU/L
ALT (9 h): 26.4 IU/L
AST (9 h): 68.4 IU/L
BUN (9 h): 10.6 mg/dL
CRE (9 h): 0.4 mg/dL
Ca (9 h): 10.6 mg/dL
Cl (9 h): 103.4 meq/L
DBIL (9 h): 0.064 mg/dL
GLC (9 h): 207.2 mg/dL
IP (9 h): 10.7 mg/dL
K (9 h): 4.1 meq/L
LDH (9 h): 216.6 IU/L
Na (9 h): 141.2 meq/L
PL (9 h): 130.2 mg/dL
RALB (9 h): 3.4 g/dL
TBIL (9 h): 0.1 mg/dL
TC (9 h): 68 mg/dL
TG (9 h): 44 mg/dL
TP (9 h): 5.4 g/dL
gamma-GTP (9 h): 0.8 IU/L
TERMINAL_BW (24 h): 231.5 g
APTT (24 h): 18.5 s
Bas (24 h): 0.2%
Eos (24 h): 1%
Fbg (24 h): 233.4 mg/dL
Hb (24 h): 13.7 g/dL
Ht (24 h): 39.3%
Lym (24 h): 76.4%
MCH (24 h): 21 pg
MCHC (24 h): 34.8%
MCV (24 h): 60.4 fL
Mono (24 h): 2.6%
Neu (24 h): 19%
PT (24 h): 11.6 s
Plat (24 h): 126.2 x10_4/uL
RBC (24 h): 651.6 x10_4/ul
Ret (24 h): 6%
WBC (24 h): 100 x10_2/uL
KIDNEY_L (24 h): 1 g
KIDNEY_R (24 h): 0.9 g
KIDNEY_TOTAL (24 h): 1.9 g
LIVER (24 h): 11.1 g
A/G (24 h): 1.5
ALP (24 h): 1190.4 IU/L
ALT (24 h): 36.2 IU/L
AST (24 h): 71.4 IU/L
BUN (24 h): 14.8 mg/dL
CRE (24 h): 0.4 mg/dL
Ca (24 h): 10.7 mg/dL
Cl (24 h): 103.4 meq/L
DBIL (24 h): 0.052 mg/dL
GLC (24 h): 195.6 mg/dL
IP (24 h): 7.4 mg/dL
K (24 h): 3.9 meq/L
LDH (24 h): 229.6 IU/L
Na (24 h): 141.2 meq/L
PL (24 h): 139.6 mg/dL
RALB (24 h): 3.3 g/dL
TBIL (24 h): 0.1 mg/dL
TC (24 h): 74 mg/dL
TG (24 h): 108.8 mg/dL
TP (24 h): 5.5 g/dL
gamma-GTP (24 h): 1.2 IU/L
